# Test: logP by reversed-phase HPLC (EEC Directive 79/831 Annex V.A8)
# Assay type: physicochemical
# Conditions: not given
row,SMILES,chromatographic logP
1,"Cn1nnnc1/C(=N/OCc1cccc(N2C(=O)c3ccccc3C2=O)n1)c1csc(-c2ccccc2)n1 [Compound 173, O-(2-Phtalimidopyridin-6-yl)methyl-(2-phenyl-1,3-thiazol-4-yl)-(1-methyitetrazol-5-yl)methanone oxime]",3.46
2,"Cn1nnnc1/C(=N/OCc1cccc(N)n1)c1csc(-c2ccccc2)n1 [Compound 174, O-(2-Aminopyridin-6-yl)methyl-(2-phenyl-1,3-thiazol-4-yl)-(1-methyltetrazol-5-yl)methanone oxime]",1.57
3,"CCCCCC(=O)Nc1cccc(CO/N=C(\c2csc(-c3ccccc3)n2)c2nnnn2C)n1 [Compound 178, O-(2-Pentylcarbonylaminopyridin-6-yl)methyl-(2-phenyl-1,3-thiazol-4-yl)-(1-methyitetrazol-5-yl)methanone oxime]",4.06

# Same assay, conditions: HPLC C18, 40° C., 0.1% aqueous formic acid / acetonitrile gradient
row,SMILES,LogP
1,CCCCCC(=O)Nc1nc(CON=C(c2ccc(-c3ccc(Cl)c(Cl)c3)o2)n2nnnc2C)cs1 [Compound 85],4.78
2,Cc1nnnn1C(=NOCc1csc(N)n1)c1ccc(Br)s1 [Compound 86],2.07
3,Cc1nnnn1C(=NOCc1csc(NC(=O)C(C)(C)C)n1)c1ccc(Br)s1 [Compound 87],3.74
4,Cc1nnnn1C(=NOCc1csc(NC(=O)CCCc2ccccc2)n1)c1ccc(Br)s1 [Compound 88],4.04
5,Cc1nnnn1C(=NOCc1csc(NC(=O)CCc2ccccc2)n1)c1ccc(Br)s1 [Compound 89],3.76
6,Cc1nnnn1C(=NOCc1csc(NC(=O)C2CCCC2)n1)c1ccc(Br)s1 [Compound 90],3.66
7,Cc1nnnn1C(=NOCc1csc(NC(=O)c2ccccc2)n1)c1ccc(Br)s1 [Compound 91],3.61
8,CCCCCC(=O)Nc1nc(CON=C(c2ccc(Br)s2)n2nnnc2C)cs1 [Compound 92],3.92
9,Cc1nnnn1C(=NOCc1csc(NC(=O)Cc2ccccc2)n1)c1ccc(Br)s1 [Compound 93],3.53
10,Cc1nnnn1C(=NOCc1csc(NC(=O)C(C)C)n1)c1ccc(Br)s1 [Compound 94],3.22
11,Cc1nnnn1C(=NOCc1csc(NC(=O)COCc2ccccc2)n1)c1ccc(Br)s1 [Compound 95],3.76
12,Cc1nnnn1C(=NOCc1csc(NC(=O)C2CC2)n1)c1ccc(Br)s1 [Compound 96],3.04
13,C=CCC(=O)Nc1nc(CON=C(c2ccc(Br)s2)n2nnnc2C)cs1 [Compound 97],3.08
14,COCCOCC(=O)Nc1nc(CON=C(c2ccc(Br)s2)n2nnnc2C)cs1 [Compound 98],2.94
15,COCCOC(=O)Nc1nc(CON=C(c2ccc(Br)s2)n2nnnc2C)cs1 [Compound 99],3.1
16,Cc1nnnn1C(=NOCc1csc(N)n1)c1ccc(Cl)s1 [Compound 100],2.02
17,Cc1nnnn1C(=NOCc1csc(NC(=O)C2CC2)n1)c1ccc(Cl)s1 [Compound 101],3
18,Cc1nnnn1C(=NOCc1csc(NC(=O)C(C)(C)C)n1)c1ccc(Cl)s1 [Compound 102],3.73
19,Cc1nnnn1C(=NOCc1csc(NC(=O)Cc2ccccc2)n1)c1ccc(Cl)s1 [Compound 103],3.62
20,Cc1nnnn1C(=NOCc1csc(NC(=O)NCCc2ccccc2)n1)c1ccc(Cl)s1 [Compound 104],3.64
21,Cc1nnnn1C(=NOCc1csc(NC(=O)NCc2ccccc2)n1)c1ccc(Cl)s1 [Compound 105],3.32

row,SMILES,LogP
1,CCCCCC(=O)Nc1nc(CON=C(c2ccc(Cl)s2)n2nnnc2C)cs1 [Compound 106],4.12
2,Cc1nnnn1C(=NOCc1csc(NC(=O)CCCc2ccccc2)n1)c1ccc(Cl)s1 [Compound 107],4.12
3,Cc1nnnn1C(=NOCc1csc(NC(=O)CCc2ccccc2)n1)c1ccc(Cl)s1 [Compound 108],3.85
4,Cc1nnnn1C(=NOCc1csc(NC(=O)OCc2ccccc2)n1)c1ccc(Cl)s1 [Compound 109],3.93
5,Cc1nnnn1C(=NOCc1csc(NC(=O)OCCc2ccccc2)n1)c1ccc(Cl)s1 [Compound 110],4.24
6,COCCOCC(=O)Nc1nc(CON=C(c2ccc(Cl)s2)n2nnnc2C)cs1 [Compound 111],2.88
7,COCCOC(=O)Nc1nc(CON=C(c2ccc(Cl)s2)n2nnnc2C)cs1 [Compound 112],3.05
8,Cc1ccc(C(=NOCc2csc(N)n2)n2nnnc2C)s1 [Compound 113],1.8
9,CCCC(=O)Nc1nc(CON=C(c2ccc(C)s2)n2nnnc2C)cs1 [Compound 114],2.88
10,Cc1ccc(C(=NOCc2csc(NC(=O)C(C)(C)C)n2)n2nnnc2C)s1 [Compound 115],3.42
11,Cc1ccc(C(=NOCc2csc(NC(=O)Cc3ccccc3)n2)n2nnnc2C)s1 [Compound 116],3.35
12,Cc1ccc(C(=NOCc2csc(NC(=O)NCc3ccccc3)n2)n2nnnc2C)s1 [Compound 117],3.17
13,Cc1ccc(C(=NOCc2csc(NC(=O)NCCc3ccccc3)n2)n2nnnc2C)s1 [Compound 118],3.33
14,Cc1ccc(C(=NOCc2csc(NC(=O)C3CC3)n2)n2nnnc2C)s1 [Compound 119],2.84
15,CCCCCC(=O)Nc1nc(CON=C(c2ccc(C)s2)n2nnnc2C)cs1 [Compound 120],3.76
16,Cc1ccc(C(=NOCc2csc(NC(=O)CCCc3ccccc3)n2)n2nnnc2C)s1 [Compound 121],3.81
17,Cc1ccc(C(=NOCc2csc(NC(=O)CCc3ccccc3)n2)n2nnnc2C)s1 [Compound 122],3.54
18,Cc1ccc(C(=NOCc2csc(NC(=O)OCCc3ccccc3)n2)n2nnnc2C)s1 [Compound 123],3.88
19,Cc1ccc(C(=NOCc2cccc(N)n2)n2nnnc2C)s1 [Compound 124],1.51
20,Cc1ccc(C(=NOCc2cccc(NC(=O)OCCc3ccccc3)n2)n2nnnc2C)s1 [Compound 125],4.02
21,CCCCCOC(=O)Nc1cccc(CON=C(c2ccc(C)s2)n2nnnc2C)n1 [Compound 126],4.34

row,SMILES,LogP
1,CCCCCC(=O)Nc1cccc(CON=C(c2ccc(C)s2)n2nnnc2C)n1 [Compound 127],3.79
2,Cc1ccc(C(=NOCc2cccc(NC(=O)NCCc3ccccc3)n2)n2nnnc2C)s1 [Compound 128],3.06
3,COCCOCC(=O)Nc1nc(CON=C(c2ccc(C)s2)n2nnnc2C)cs1 [Compound 129],2.6
4,COCCOC(=O)Nc1nc(CON=C(c2ccc(C)s2)n2nnnc2C)cs1 [Compound 130],2.76
5,Cc1nnnn1C(=NOCc1csc(N)n1)c1ccc(-c2ccccc2)o1 [Compound 131],2.13
6,CCCCCC(=O)Nc1nc(CON=C(c2ccc(-c3ccccc3)o2)n2nnnc2C)cs1 [Compound 133],3.8
7,Cc1nnnn1C(=NOCc1csc(NC(=O)C(C)C)n1)c1ccc(-c2ccccc2)o1 [Compound 134],3.27
8,CCCCCCCCC(=O)Nc1nc(CON=C(c2ccc(-c3ccccc3)o2)n2nnnc2C)cs1 [Compound 135],5.01
9,Cc1nnnn1C(=NOCc1csc(NC(=O)CCCCl)n1)c1ccc(-c2ccccc2)o1 [Compound 136],3.39
10,Cn1nnnc1C(=NOCc1csc(NC(=O)OCCc2ccccc2)n1)c1csc(-c2ccccc2)n1 [Compound 166],4.06
11,CCCCCOC(=O)Nc1nc(CON=C(c2csc(-c3ccccc3)n2)c2nnnn2C)cs1 [Compound 167],4.29
12,Cn1nnnc1C(=NOCc1csc(NC(=O)C2CC2)n1)c1csc(-c2ccccc2)n1 [Compound 168],3.85
13,Cn1nnnc1C(=NOCc1csc(NC(=O)c2ccccc2)n1)c1csc(-c2ccccc2)n1 [Compound 169],3.62
14,Cn1nnnc1C(=NOCc1csc(NC(=O)C(C)(C)C)n1)c1csc(-c2ccccc2)n1 [Compound 170],3.62
15,CCCCCC(=O)Nc1nc(CON=C(c2csc(-c3ccccc3)n2)c2nnnn2C)cs1 [Compound 171],3.94
16,Cn1nnnc1C(=NOCc1csc(NC(=O)Cc2ccccc2)n1)c1csc(-c2ccccc2)n1 [Compound 172],3.58
17,Cn1nnnc1C(=NOCc1cccc(NC(=O)Cc2ccccc2)n1)c1csc(-c2ccccc2)n1 [Compound 175],3.72
18,Cn1nnnc1C(=NOCc1cccc(NC(=O)C(C)(C)C)n1)c1csc(-c2ccccc2)n1 [Compound 176],3.7
19,CCCCCOC(=O)Nc1cccc(CON=C(c2csc(-c3ccccc3)n2)c2nnnn2C)n1 [Compound 177],4.56
